Target: T1, HaHSL (Falsihalocynthiibacter arcticus, UniProt A0A126UZB4)
T1 construct: gene RC74_09005; full-length ORF (789 bp); mass peak 31,740; monomer; catalytic Ser138, Glu216, His244
Experiment: p-nitrophenol release at […] nm, Lineweaver-Burk
Assay type: biochemical
Details: free enzyme; 20 mM Tris-HCl, 100 mM NaCl, pH 7.4 (spectroscopic analyses); standard assay pH 8.0, 25 °C

T1 sequence (A0A126UZB4 entry or part of it): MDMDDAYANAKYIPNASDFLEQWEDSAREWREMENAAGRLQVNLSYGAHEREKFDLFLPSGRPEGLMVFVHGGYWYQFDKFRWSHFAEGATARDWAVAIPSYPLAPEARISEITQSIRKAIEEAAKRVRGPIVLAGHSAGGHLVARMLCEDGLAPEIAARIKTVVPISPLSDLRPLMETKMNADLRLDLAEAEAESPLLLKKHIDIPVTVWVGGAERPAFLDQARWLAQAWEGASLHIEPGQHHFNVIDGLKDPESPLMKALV

Q: With `CCCCCC(=O)Oc1ccc([N+](=O)[O-])cc1` [p-nitrophenyl hexanoate] as the compound, how does the Km read?
A: 2320 ± 630 µM

Q: Which Km does the source give for `CCCC(=O)Oc1ccc([N+](=O)[O-])cc1` [p-nitrophenyl butyrate] here?
A: 1970 ± 530 µM

Q: `CC(=O)Oc1ccc([N+](=O)[O-])cc1` [p-nitrophenyl acetate] was tested. Which Km did it give?
A: 210 µM
